{"source": "patent US8071570B2", "about": "“Mixtures of polysaccharides derived from heparin, their preparation and pharmaceutical compositions containing them” (Aventis Pharma S.A., priority 2002, dated 2011)", "key": {"ATIII": {"molecular_target": "ATIII (Homo sapiens, UniProt P01008)", "sequence (P01008 33-464, species assumed)": "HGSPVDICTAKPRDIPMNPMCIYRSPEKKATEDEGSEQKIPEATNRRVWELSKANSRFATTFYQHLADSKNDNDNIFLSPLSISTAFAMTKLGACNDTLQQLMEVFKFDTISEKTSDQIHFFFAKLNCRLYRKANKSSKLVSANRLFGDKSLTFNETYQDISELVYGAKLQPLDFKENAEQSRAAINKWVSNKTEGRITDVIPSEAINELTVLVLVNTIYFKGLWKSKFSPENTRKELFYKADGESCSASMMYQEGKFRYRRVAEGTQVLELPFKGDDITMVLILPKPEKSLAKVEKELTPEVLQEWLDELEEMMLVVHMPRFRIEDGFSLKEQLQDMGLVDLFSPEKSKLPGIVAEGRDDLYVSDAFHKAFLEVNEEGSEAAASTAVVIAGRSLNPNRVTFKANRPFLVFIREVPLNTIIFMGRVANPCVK"}, "[1]": {"test_system": "activated factor X (factor Xa)", "assay": "anti-Xa activity, amidolytic method on a chromogenic substrate", "type": "biochemical", "details": "isolated hexasaccharide", "experimental": "The anti-Xa activity is measured by the amidolytic method on a chromogenic substrate described by Teien et al., Thromb. Res., 10, 399-410 (1977), with, as standard, the first international standard for low-molecular-weight heparins. See Barrowcliffe, T. W., A. D. Curtis, et al. (1985). “Standardization of Low Molecular Weight Heparins: A Collaborative Study.” Thrombosis and Haemostasis 54: 675-679; and Barrowcliffe, T. W. (1988). “An International Standard for Low Molecular Weight Heparin.” Thrombosis and Haemostasis 60:1-7."}}, "data": [{"smiles": "CC(=O)N[C@H]1[C@@H](O[C@H]2[C@H](O)[C@@H](O)[C@H](O[C@H]3[C@H](OS(=O)(=O)O)[C@@H](NS(=O)(=O)O)[C@@H](O[C@H]4[C@H](O)[C@@H](OS(=O)(=O)O)[C@H](O[C@H]5[C@H](O)[C@@H](NS(=O)(=O)O)[C@@H](O)O[C@@H]5COS(=O)(=O)O)O[C@H]4C(=O)O)O[C@@H]3COS(=O)(=O)O)O[C@@H]2C(=O)O)O[C@H](COS(=O)(=O)O)[C@@H](O[C@@H]2OC(C(=O)O)=C[C@H](O)[C@H]2O)[C@@H]1O", "note": "[hexasaccharide ΔIIa-IIs-Is]", "values": [{"measurement": "affinity for ATIII", "setting": "ATIII", "result": "high affinity"}, {"measurement": "aXa activity", "setting": "[1]", "result": "greater than 740 U/mg"}]}]}
